Experimental data reported in US4751302A, “Indazole derivatives” (priority 1982, dated 1988).

How the values were obtained:
[1] = tested on: carrageenin edema on hind paw; assay: Carrageenin edema inhibition, comparison with 3-amino-5-chloroindazole; assay type: in vivo, female Wister rats; settings: oral; for inhibition to the (carrageenin) edema: after 3 hours from the injection of 1% carrageenin
Description: (§1) To female Wister rats weighing 130-150 g nothing was fed for 19 hours. Then, the rats were orally administered the test compound. Sixty minutes later, the pad of a hind paw of the rat was injected with 0.1 ml of 1% carrageenin solution. After edema was formed on the paw, paw volume and body temperature of the rat were measured, and movement of the rat was observed. As a result, both 3-amino-5-chloroindazole and Compound (46) show a strong inhibition to the edema, that is, 65% and 59%, respectively,after 3 hours from the injection.

[2] = Body temperature / side effects in carrageenin-treated rats; assay type: in vivo, female Wister rats
Description: as §1

[3] = Locomotor activity observation in carrageenin-treated rats; assay type: in vivo, female Wister rats; settings: oral, carrageenin-injected rats
Description: as §1

[4] = tested on: Carrageenin edema in rat's paw; assay: Carrageenin Edema Test in Rat's Paw (anti-inflammatory activity, Table 1); assay type: in vivo; settings: 100 mg/kg oral, hydrochloride, rat
Description: An anti-inflammatory activity was measured by orally administering 100 mg/kg of a hydrochloride of the indazole derivative of this invention as set forth in Table 1 to an animal in accordance with the standard method of Carrageenin Edema Test in Rat's Paw described in C. A. Winter et al., Proc. Soc. Exp. Biol. Med., 111, 544 (1962).

[5] = tested on: Bradykinin inducing edema; assay: Anti-edema test, bradykinin inducing edema (Table 2); assay type: in vivo, rat; settings: 100 mg/kg oral, after 30 minutes
Description: (§2) […] A. Winter et al., NonSteroidal Anti-inflammatory Drugs. As an edema inducing substance, bradykinin, histamine and serotonin were employed. […] Bradykinin inducing edema inhibition and histamine inducing edema inhibition were measured after 30 minutes of the administration, and serotonin inducing edema inhibition was measured after 3 hours of the administration.

Histamine inducing edema = assay: Anti-edema test, histamine inducing edema (Table 2); assay type: in vivo, rat; settings: 100 mg/kg oral, after 30 minutes
Description: as §2

Serotonin inducing edema = assay: Anti-edema test, serotonin inducing edema (Table 2); assay type: in vivo, rat; settings: 100 mg/kg oral, after 3 hours
Description: as §2

acetic acid-writing = assay: Analgesic activity, acetic acid-writing test (Table 3); assay type: in vivo, animal (rat); standard mouse acetic acid-writing test; settings: 100 mg/kg oral
in vivo = settings: mouse, ip, intraperitoneal, hydrochloride, male ddy mice

Structure (SMILES)	inhibition to the (carrageenin) edema [1]	decrease of body temperature ([2]; oral, carrageenin-injected rats)	depression of locomotor activity [3]	inhibition in vivo at 100 mg/kg [4]	Bradykinin inducing edema Inhibition [5]	Histamine inducing edema Inhibition (Histamine inducing edema)	Serotonin inducing edema Inhibition (Serotonin inducing edema)	Carrageenin edema inhibition activity relative to 3-amino-5-chloroindazole [1]	side effects (decrease of body temperature, depression of locomotor activity), words ([2]; relative to 3-amino-5-chloroindazole)	Inhibition (acetic acid-writing, analgesic activity) (acetic acid-writing)	LD50 (in vivo)
Nc1n[nH]c2ccc(Cl)cc12 [3-amino-5-chloroindazole, reference compound]	65%	3-4 °C	remarkable depression of locomotor activity	–	–	–	–	–	–	–	–
CCN(CC)CCCNc1n[nH]c2ccc(Cl)cc12 [(46), 3-(3-Diethylaminopropylamino)-5-chloroindazole]	59%	–	–	59%	14.7%	31.0%	73.4%	the same Carrageenin edema inhibition activity as 3-amino-5-chloroindazole	can relieve the side effects of 3-amino-5-chloroindazole	52%	211 mg/kg
